Counter-ions that a name gives are not always drawn.
Test: In-vitro permeation testing with a Franz Cell Diffusion System
Description: In-vitro Permeation testing was performed for the dosage forms in Table 8 with a Franz Cell Diffusion System. The receiving chamber was filled in water solution and stirred with magnetic bar. Fix the PermeaPad® Barrier membrane at the surface. The PermeaPad® Barrier consists of two cellulose membranes and in between there is a Lipid layer Lecithine (S-100). Place the donating chamber onto the receiving chamber and effectively sandwich the membrane. Add 5 mg of the film prepared in Table 8 into the donating chamber and introduce 1 ml of water to dissolve the film. Start the timer for the experiment.
Permeability (P, cm/h), in general within first 8 hours, is defined as the rate of flow of liquid through the membrane.
The similar procedure was performed for the other APIs with a molecule weight ranging from 100 to 6000 g/mol.

| Pemeability (cm/h) via PermeaPad Biomimetic Membrane in vitro (HLB9.0) | Compound | Pemeability (cm/h) via PermeaPad Biomimetic Membrane in vitro (HLB15) [cm/h] | Pemeability (cm/h) via PermeaPad Biomimetic Membrane in vitro (no enhancers) | Pemeability (cm/h) via PermeaPad Biomimetic Membrane in vitro (HLB4.3) | Pemeability (cm/h) via PermeaPad Biomimetic Membrane in vitro (HLB9.4) | Pemeability (cm/h) via PermeaPad Biomimetic Membrane in vitro (enhancer condition not stated) |
| --- | --- | --- | --- | --- | --- | --- |
| (HLB15), 2.73 (HLB9.0) cm/h | CN1CCc2cccc3c2[C@H]1Cc1ccc(O)c(O)c1-3 [Apomorphine HCL] | 1.87 | 0.413 cm/h | – | – | – |
| – | NC(=O)c1ccc[n+]([C@@H]2O[C@H](COP(=O)([O-])O)[C@@H](O)[C@H]2O)c1 [Beta-nicotinamide mononucleotide, NMN, Beta-nicotinamide mononucleotide] | – | 0.23 (No enhancers), cm/h | 0.23 (HLB4.3), cm/h | 0.38 (HLB9.4) cm/h | – |
| – | CC[C@H](C)[C@H](NC(=O)[C@H](CCC(=O)O)NC(=O)[C@H](CCC(=O)O)NC(=O)[C@H](Cc1ccccc1)NC(=O)[C@H](CC(=O)O)NC(=O)CNC(=O)[C@H](CC(N)=O)NC(=O)CNC(=O)CNC(=O)CNC(=O)CNC(=O)[C@@H]1CCCN1C(=O)[C@H](CCCNC(=N)N)NC(=O)[C@@H]1CCCN1C(=O)[C@H](N)Cc1ccccc1)C(=O)N1CCC[C@H]1C(=O)N[C@@H](CCC(=O)O)C(=O)N[C@@H](CCC(=O)O)C(=O)N[C@@H](Cc1ccc(O)cc1)C(=O)N[C@@H](CC(C)C)C(=O)O [Bivalirudin Peptide, Bivalirudin] | – | – | – | – | Un-detectable |
| – | Cn1c(=O)c2c(ncn2C)n(C)c1=O [Caffeine] | 5.01 | 0.277 cm/h | – | (HLB15), 7.76 (HLB9.4) cm/h | – |
| – | Insulin | – | – | – | – | Un-detectable |

Source: patent publication US12558312B2, “Solid dosage form for transmucosal drug delivery” (Primo Pharmatech LLC, priority 2020, dated 2026)
